One molecule from patent US12077555B2, “STAT degraders and uses thereof” (Kymera Therapeutics, Inc., priority 2019, dated 2024) can be followed below.

The test system of experiment [1] is STAT3-mediated gene expression (SOCS3, PD-L1). Briefly: RT-qPCR of STAT3, SOCS3 and PDL-1 mRNA levels in SU-DHL-1 cells. The class given is cell-based. Particulars: FIG. 15. How it is done:
FIG. 5. Includes graphical images and tables showing the results of RT-qPCR in SU-DHL-1 cells at 24 hours (A) with mRNA levels (% control) over I-103 concentration (nM)(x-axis) for STAT3, SOCS3, and PDL-1 genes and CellTiterGlo (CTG) cell viability at 4 days (B) with growth inhibition (% control) over I-103 concentration (nM)(x-axis) for MOLM-16 and SU-DHL-1 cell lines. Also shown are the results of MSD degradation DC50 (nM) in MOLM-16 and SU-DHL-1 cell lines at 24 hours.
(In general: Quantitative PCR measures a nucleic acid by following its amplification.)

Experiment [2] has as its system KI-JK cells. Kind of experiment: CellTiter-Glo cell viability, KI-JK. The class given is cell-based. On the technique in general: In ATP-based viability assays light output follows the ATP content of the culture.
The test system of experiment [3] is SU-DHL-1. Kind of experiment: STAT3 decrease needed for SU-DHL-1 apoptosis and cell growth inhibition (FIG. 8, 17). The class given is cell-based. The source says:
FIG. 8 depicts that a decrease of STAT3 by 90% using I-103 is necessary to induce SU-DHL-1 apoptosis and inhibit cell growth.
FIG. 17 depicts that a decrease of STAT3 by 90% using I-174 and I-94 is necessary to induce SU-DHL-1 apoptosis and inhibit cell growth.

In experiment [4] the target is T1, STAT3 (Homo sapiens, UniProt P40763). Kind of experiment: STAT3 degradation (DC50) in multiple ALK+ALCL cell lines. The class given is cell-based. Particulars: dose response curves, FIG. 14.
The test system of experiment [5] is STAT3. Kind of experiment: STAT3 RT-qPCR assay, STAT3 mRNA. The class given is cell-based. The following applies: SU-DHL-1 cells, FIG. 5A, FIG. 15. On the procedure:
SU-DHL-1 cells were treated with compounds for a designed time. 0.3-0.6 mL lysis buffer with 2-mercaptoethanol was added to the collected cell pellet or monolayer cells. The cells were vortexed until the cell was dispersed and the cells appear lysed. One volume of 70% ethanol was added to each volume of cell homogenate and vortex. 700 μL of the sample was transferred to the spin cartridge and centrifuged at 12000 g for 15s at RT. The flow-through was discarded and the process repeated until the entire samples had been processed. 700 ul wash buffer I was added to the spin cartridge and centrifuged at 12000 g for 15s at RT and the flow-through was discarded. 500 μL wash buffer II with ethanol was added to the spin cartridge and centrifuged at 12000 g for 15s at RT and the flow-through was discarded. The process was then repeated. The spin cartridge was centrifuged at 12000 g for 2 min to dry the membrane with bound RNA. 30-100 μL RNase-free water was added to the center of the spin cartridge and incubated for 1 min at RT. […] The concentration of the RNA was quantitated using Nano-Drop. cDNA was formed from the RNA by reverse transcription and qPCR of the cDNA with primer of the gene of interest and housekeeping gene was preformed using the volumes below: […]

For experiment [6], the system named is SUP-M2 tumor cells. Kind of experiment: Xenograph tumor study, SUP-M2. The class given is in vivo, NOD SCID mice. The following applies: ALK+ALCL xenograph model SUP-M2, intermittent dosing, FIG. 20. On the procedure:
(§1) Animals: 50 6-8 week old female NOD SCID mice weighing 18 to 20 grams. 25 mice were used in each study.
(§2) Method for Tumor Inoculation: Each mouse was inoculated subcutaneously with SU-DHL-1 tumor cells (1×107+Matrigel) or SUP-M2 tumor cells (5×106+Matrigel) in 0.1 ml of RPMI1640 medium supplemented with 10% FBS, 100 U/ml penicillin and […] streptomycin for tumor development. Mice were then assigned to groups such that the mean tumor volume was the same for each treatment group and time point. […] Vehicle was 25% HP-β-CD in water adjusted to pH 7.4.
(§3) Measurement Parameters: Study animals were monitored not only for tumor growth but also behavior such as mobility, food and water consumption (by cage side checking only), body weight (BW), eye/hair matting and any other abnormal effect. Any mortality and/or abnormal clinical signs was recorded. Sponsor was notified immediately if abnormal clinical signs, or if tolerability issues were observed. Body weights of all animals were measured and recorded twice per week. The measurement of tumor size was conducted twice weekly with a caliper and recorded. The tumor volume (mm3) was estimated using the formula: TV=a×b2/2, where “a” and “b” are long and short diameters of a tumor, respectively.

Experiment [7] concerns ALK+ALCL cell lines. Kind of experiment: growth inhibition in multiple ALK+ALCL cell lines. The following applies: dose response curves, FIG. 16. The class given is cell-based.
Experiment [8] deals with T1, STAT3. Briefly: STAT3 HiBiT degradation assay in transfected A549 cells. The class given is cell-based. Also on record: expressed in transfected cells; host or cells: A549. Particulars: A549, 24 h; read-out: STAT3 HiBiT A549 degradation 24 h: Average external-Abs DC50. The gist of the method:
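Degradation read as HiBiT-tagged STAT3 luminescence (Nano-Glo lytic reagent, 10 min, room temperature) following 24 h compound treatment of transfected A549 cells at 3-fold, 10 points. Percent remaining signal computed against controls and fitted with a four-parameter logistic; DC50 reported as letter bins (A <0.01 to D >1.0 µM).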

The subject of experiment [9] is SU-DHL-1 tumor cells. Briefly: Xenograph tumor study, SU-DHL-1. The class given is in vivo, NOD SCID mice. Particulars: for tumor volume, 5 days / tumor volume, 10 days / tumor volume, 15 days / tumor volume, 20 days: SUDHL-1 xenograph, 2.5-30 mg/kg, 2 days on/5 days off. How it is done:
as §1, §2, §3

T1 sequence (P40763 whole entry): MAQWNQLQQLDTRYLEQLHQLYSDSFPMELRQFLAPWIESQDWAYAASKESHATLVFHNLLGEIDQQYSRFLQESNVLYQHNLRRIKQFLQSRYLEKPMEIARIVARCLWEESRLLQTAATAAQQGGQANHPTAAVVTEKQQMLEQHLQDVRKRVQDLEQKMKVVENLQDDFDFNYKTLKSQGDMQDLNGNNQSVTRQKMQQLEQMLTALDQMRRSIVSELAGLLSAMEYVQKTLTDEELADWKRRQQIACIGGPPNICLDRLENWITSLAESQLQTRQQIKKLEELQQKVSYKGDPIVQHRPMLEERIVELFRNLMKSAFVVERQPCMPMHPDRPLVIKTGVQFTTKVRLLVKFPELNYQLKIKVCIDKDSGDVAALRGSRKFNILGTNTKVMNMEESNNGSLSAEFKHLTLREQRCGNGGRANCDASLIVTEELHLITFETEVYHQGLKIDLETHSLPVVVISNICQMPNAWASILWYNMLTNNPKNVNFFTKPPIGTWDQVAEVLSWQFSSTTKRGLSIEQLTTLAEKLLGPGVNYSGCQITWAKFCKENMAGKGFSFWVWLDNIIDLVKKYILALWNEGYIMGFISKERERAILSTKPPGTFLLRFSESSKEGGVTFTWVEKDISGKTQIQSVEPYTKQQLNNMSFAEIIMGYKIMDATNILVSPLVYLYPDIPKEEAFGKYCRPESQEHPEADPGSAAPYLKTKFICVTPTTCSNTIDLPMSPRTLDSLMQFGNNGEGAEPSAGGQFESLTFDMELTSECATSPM

`Cn1c(=O)n(C2CCC(=O)NC2=O)c2ccc(C[C@H]3CC[C@@H](CC(=O)N4CC[C@H]5CC[C@@H](C(=O)N[C@@H](CCC(N)=O)C(=O)NC(c6ccccc6)c6ccccc6)N5C(=O)[C@@H](NC(=O)c5cc6cc(C(=O)P(=O)(O)O)ccc6[nH]5)C4)CC3)cc21` (stereo partly drawn) [Compound I-174, 2-[[(5S,8S,10aR)-8-[[(1S)-3-carbamoyl-1-(diphenylmethylcarbamoyl)propyl]carbamoyl]-6-oxo-3-[2-[(1s,4s)-4-[[1-(2,6-dioxopiperidin-3-yl)-3-methyl-2-oxo-1,3-benzodiazol-5-yl]methyl]cyclohexyl]acetyl]-octahydropyrrolo[1,2-a][1,5]diazocin-5-yl]carbamoyl]-1H-indole-5-carbonylphosphonic acid]: the “STAT3-mediated gene expression of SOCS3 and PD-L1” value in experiment [1] is “repression of STAT3-mediated gene expression”. Further, the IC50 in [2] (96 h, ALCL (ALK+), Day 4, read-out: CTG, IC50 μM, Day 4) came out at 0.047 µM. In experiment [2] (ALCL (ALK+), Day 4), the “CTG (% Max inh), Day 4” value is reported as “(97) %”. Besides, the cell proliferation entry in experiment [2] (FIG. 16) was “inhibit”. Besides, in experiment [3], the “decrease of STAT3 necessary to induce SU-DHL-1 apoptosis and inhibit cell growth” value was 90%. Moreover, the “degradation in multiple ALK+ALCL cell lines” value in experiment [4] is listed as “mediated degradation”. Also, in experiment [5], the “STAT3-dependent gene expression of STAT3” value is reported as “downregulates”. Moreover, in experiment [6], the tumor regression result is recorded as “achieves tumor regression”. The “growth inhibition in multiple ALK+ALCL cell lines” value in experiment [7] is “mediated growth inhibition”. In experiment [8], the DC50 lay in the range of 10 to 100 nM. Also, the tumor regression result in [9] (ALK+ALCL xenograph model SU-DHL-1, intermittent dosing, FIG. 19) is given as “achieves tumor regression”. Also, in experiment [9] (IP), the “tumor volume, 5 days” value is given as “A (A<500 mm^3)”; the “tumor volume, 10 days” value is given as “A (A<500 mm^3)”; the “tumor volume, 15 days” value was “A (A<500 mm^3)”; the “tumor volume, 20 days” value is on record as “A (A<500 mm^3)”. In experiment [9] (IV), the “tumor volume, 5 days” value was “A (A<500 mm^3)”; the “tumor volume, 10 days” value was “A (A<500 mm^3)”; the “tumor volume, 15 days” value was “A (A<500 mm^3)”; the “tumor volume, 20 days” value is “A (A<500 mm^3)”.

As a reminder, the IC50 is the point on the concentration scale where inhibition reaches its midpoint. The term DC50 denotes the concentration giving 50% degradation.
